Key:
BT-474 cells = assay: Sulforhodamine B (SRB) cell viability assay with ERβ-specific ligands; type: cell-based, human; settings: for cell viability: Ro 48-8071 combined with ERβ antagonist PHTPP: BT-474, 10 nM Ro 48-8071 ± 10 or 100 nM PHTPP, 24 h; for cell viability: Ro 48-8071 combined with ERβ agonist DPN: BT-474, 10 nM Ro 48-8071 ± 1 nM DPN, 48 h
Experimental: FIG. 6. […] BT-474 cells were treated with 10 nM Ro 48-8071±1 nM DPN, or with DPN alone. Cell viability was determined after 48 h using the SRB assay.
FIG. 7. […] BT-474 cells treated with 10 nM Ro 48-8071 for 24 h±10 or 100 nM PH, or with PHTPP alone. Cell viability was determined after 24 h as described previously. […] The anti-proliferative effects of Ro 48-8071 in breast cancer cells is reduced when it is combined with ERβ antagonist.
The sulforhodamine B (SRB) assay was employed to evaluate the effect potent cholesterol biosynthesis inhibitor Ro 48-8071 alone or in combination with ERβ-specific ligands on viability of breast cancer cells, with slight modification of the original procedure established at NCI. Ro 48-8071, and ERβ-specific ligands (either an agonist DPN (diarylpropionitrile), or an antagonist PHTPP (4-[2-phenyl-5,7-bis(trifluoromethyl) pyrazolo[1,5-a]pyrimidin-3-yl]phenol)) (“PH”) were used in BT-474, T47-D, MDA-MB-231, and BT-20 human breast cancer cells in this study.
Accordingly, cells were seeded in 96-well plates in 100 μL culture medium and incubated overnight at 37° C. with 5% CO2. Culture medium was removed after 24 h, and the attached cells were washed with DMEM/F12 medium and treated by Ro 48-8071 alone or with ERβ-specific ligands at various concentrations for 24-48 hrs. […]
The surviving or adherent cells were fixed in situ by withdrawing the growth medium and adding 100 μL of PBS and 100 μL of 50% cold trichloroacetic acid and then incubating at 4° C. for 1 h. Attached cells (that had survived) were washed 5 times with ice-water, dried at room temperature (RT), and then stained with 50 μL […] SRB for 8 min at room temperature (RT). Unbound dye was removed by washing 5 times with cold 1% acetic acid, and the plates were dried at RT. Bound stain was solubilized with 150 μL 10 mM Tris buffer, and absorbance of samples measured at 520 nm with a SpecTRA MAX 190 microplate reader (Sunnyvale, Calif.). Six wells were used for each concentration, and each experiment was performed at least twice.

OSC = molecular target: T1, OSC (Homo sapiens, UniProt P48449); settings: cited from earlier work
T1 sequence (P48449 1-732): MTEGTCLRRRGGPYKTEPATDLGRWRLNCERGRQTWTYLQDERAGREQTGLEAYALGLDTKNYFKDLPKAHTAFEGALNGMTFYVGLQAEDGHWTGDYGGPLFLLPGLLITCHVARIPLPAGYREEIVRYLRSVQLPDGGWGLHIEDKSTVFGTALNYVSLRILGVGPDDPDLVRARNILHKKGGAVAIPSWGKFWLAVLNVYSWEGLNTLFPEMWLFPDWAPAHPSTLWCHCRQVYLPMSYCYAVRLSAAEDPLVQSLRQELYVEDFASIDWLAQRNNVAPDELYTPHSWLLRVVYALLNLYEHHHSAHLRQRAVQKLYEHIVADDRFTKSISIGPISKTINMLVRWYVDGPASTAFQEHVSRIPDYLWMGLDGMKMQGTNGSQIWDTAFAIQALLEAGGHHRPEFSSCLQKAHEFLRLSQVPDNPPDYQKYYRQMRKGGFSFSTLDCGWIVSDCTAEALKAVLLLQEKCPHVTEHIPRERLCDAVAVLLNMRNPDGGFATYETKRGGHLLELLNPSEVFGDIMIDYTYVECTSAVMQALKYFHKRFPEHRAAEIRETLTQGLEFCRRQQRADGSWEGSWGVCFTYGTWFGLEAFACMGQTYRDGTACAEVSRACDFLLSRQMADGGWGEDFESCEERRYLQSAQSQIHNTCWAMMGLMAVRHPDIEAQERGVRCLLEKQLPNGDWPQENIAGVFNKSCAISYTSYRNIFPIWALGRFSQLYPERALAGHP

ERβ = assay: Western blot analysis of ERβ protein in breast cancer cells; type: cell-based, human; settings: for expression of ERβ protein: treatment for six hours, dose-dependent
Experimental: (§1) Cells used in these experiments included both the ERα+ve as well as ERα-ve cells, including triple negative types which are very aggressive growing. The ERα+ve cells used were T47-D and BT-474 cells. The ERα-ve cells used were MDA-MB-231, BT-20 and SkBr-3 cells. All cells were grown in media as specified in the data sheet from A TCC, provider of cell lines.
(§2) Whole cell extracts of breast cancer cells were prepared using a whole cell extract kit (Active Motif, Carlsbad, Calif.). Briefly, after treatment with Ro 48-8071, cells were washed once with PBS, harvested with 0.05% trypsin-EDT A, and centrifuged at 200 g at 4° C. for 5 min. Cell pellets were resuspended in lysis buffer and supernatant was transferred into pre-chilled microcentrifuge tubes and incubated on ice for 30 minutes. Samples were centrifuged at 14,000×g at 4° C. for 20 minutes, and supernatant was transferred to pre-chilled microcentrifuge tubes. Aliquots of samples were stored at −80° C. For western blot analysis, samples containing 50 μg of protein were separated in a NuPAGE 10% Bis-Tris Gel (Invitrogen, Carlsbad, Calif.).
(§3) Electrophoresis was performed at 120 V for 2 h using NuPAGE MES-SDS Running Buffer. Separated proteins were transferred to polyvinylidene difluoride membranes (BioRad Laboratories, Hercules, Calif.) at 35 V for 1.5 h.
(§4) Blots were blocked at room temperature (RT) for 1 hr in TBS containing 0.1% Tween 20 (TBS-T) and 5% nonfat dry milk and incubated with antibodies for ERα (dilution 1:200) for 2 h at room temperature, and ERβ (dilution 1:150) at 4° C. overnight. Blots were washed 3 times with TBS-T and incubated with secondary antibody for 1 h at RT before being washed a further 7 times with TBS-T.
(§5) Immunoreactive bands were visualized using an ECL Plus detection kit (Amersham, Pharmacia Biotech, Arlington Heights, Ill.). Membranes were stripped and re-blotted for beta-actin (Sigma), which was used as a control for protein loading. β-actin was used as a loading control to determine amount of total protein loaded in each lane.

ERα = assay: Western blot analysis of ERα protein in breast cancer cells; type: cell-based, human; settings: for expression of ERα protein: treatment for six hours, dose-dependent
Experimental: as §1, §2, §3, §4, §5

Bcl-2 = assay: Western blot analysis of Bcl-2 protein in T47-D breast cancer cells; type: cell-based, human; settings: treatment for six hours
T47-D cells = assay: SRB cell viability assay after ERβ siRNA knockdown; type: cell-based, human; settings: 60 nM ERβ siRNA, Ro 48-8071 10 nM, 48 h
Experimental: FIG. 5. […] T47-D cells were treated with either ERβ siRNA (30 and 60 nM; siERβ, Santa Cruz), scrambled RNA (siC) or transfection reagent alone (C) for 72 h (upper panel). In the group treated with 60 nM siRNA, cells were treated with Ro 48-8071 (10 nM) or vehicle alone (C) for 48 h (lower panel) and tumor cell viability was determined using SRB assay as described.
ERβ siRNA (human) and control siRNA were obtained from Santa Cruz Biotechnology, Inc. (Santa Cruz, Calif., e.g. catalog no.s SC-35325 and SC-37007). ERβ siRNA is a pool of 3 target-specific 20-25 nt siRNA designed to knock down ERβ gene expression.
Transfection reagent, oligonucleotides and medium, Opti-MEM were from Invitrogen (Carlsbad, Calif.). The day before transfection, cells were seeded in six-well plates at a density of 8×10̂4 cells per well with 10% FBS DMEM/F12 medium.
To make solution A, ERβ siRNA was diluted in Opti-MEM, resulting in a final concentration of 30 or 60 nM in 100 μl/well and incubate for 5 min at room temperature (RT). […]
The surviving or adherent cells were fixed in situ by withdrawing the growth medium and adding 100 μL of PBS and 100 μL of 50% cold trichloroacetic acid and then incubating at 4° C. for 1 h. […] Bound stain was solubilized with 150 μL 10 mM Tris buffer, and absorbance of samples measured at 520 nm with a SpecTRA MAX 190 microplate reader (Sunnyvale, Calif.). […]

[1] = tested on: human breast cancer xenografts; assay: Human breast cancer xenografts in nude mice; type: in vivo
Experimental: Female athymic nu/nu nude mice, 5 to 6 weeks-old (18-22 g) may be purchased from a number of suppliers, such as Harland Sprague-Dawley, Inc. Nude mice are inoculated with 17β-estradiol pellets (1.7 mg/pellet, 60 days release) 48 hours before inoculating tumor cells. BT-474 human breast cancer cells, 5×10^6 in 0.15 ml solution mixed with matrigel and DMEM/F12 medium (4/1, v/v) are injected into each flank of mouse subcutaneously and both flanks of each mouse are injected. When tumor volume reaches around 100 mm3, animal are randomly assigned to three groups and the treatment started with RO 48-8071 (5 mg/kg/day or 10 mg/kg/day) via tail-vein injection for five days, followed by same treatment every other day for five additional times Animals in control group receive the vehicle alone under identical conditions. Tumor volumes are measured by a digital caliper and calculated using the formula (L×W×H)×0.5236.

[2] = low dose, 10 or 100 nM, seven days

## Oc1ccc(-c2c(-c3ccccc3)nn3c(C(F)(F)F)cc(C(F)(F)F)nc23)cc1 [PHTPP, 4-[2-phenyl-5,7-bis(trifluoromethyl)pyrazolo[1,5-a]pyrimidin-3-yl]phenol]
BT-474 cells
  cell viability: Ro 48-8071 combined with ERβ antagonist PHTPP: blocks the anti-proliferative effect of Ro 48-8071

## N#CC(Cc1ccc(O)cc1)c1ccc(O)cc1 (stereo not drawn) [DPN, 2,3-bis(4-hydroxyphenyl)-propionitrile]
BT-474 cells
  cell viability: Ro 48-8071 combined with ERβ agonist DPN: potentiates the ability of Ro 48-8071 to reduce viability

## CCN(CC)CCO[C@H]1CC[C@@]2(C)C(=CC[C@@H]3[C@@H]2CC[C@]2(C)C(=O)CC[C@@H]32)C1 [U18666A, 3-beta-(2-(diethylamino)ethoxy)androst-5-en-17-one]
OSC
  OSC inhibition in words: potent inhibitor of OSC

## C=CCN(C)CCCCCCOc1ccc(C(=O)c2ccc(Br)cc2)c(F)c1 [Ro 48-8071, (4-bromophenyl)[2-fluoro-4-[[6-(methyl-2-propenylamino)hexyl]oxy]phenyl]-methanone]
ERβ; BT-474 breast cancer cells
  expression of ERβ protein: induced
ERβ; ERα-negative (triple-negative) BT-20 cells
  expression of ERβ: stimulates expression of ERβ
ERβ; ERα-negative (triple-negative) MDA-MB-231 cells
  expression of ERβ: stimulates expression of ERβ
ERβ; T47-D breast cancer cells
  expression of ERβ protein: induced
ERβ; [2]
  expression of ERβ: induced
ERα; BT-474 breast cancer cells
  expression of ERα protein: suppressed
ERα; T47-D breast cancer cells
  expression of ERα protein: suppressed
ERα; [2]
  expression of ERα: suppressed
Bcl-2
  expression of Bcl-2 protein: decreased with increasing dose
T47-D cells
  tumor cell viability: effect of ERβ knockdown on the anti-proliferative effect: blocked the anti-proliferative effect
BT-474 cells
  cell viability: Ro 48-8071 combined with ERβ agonist DPN: increased cell death more effectively (additively)
  cell viability: Ro 48-8071 combined with ERβ antagonist PHTPP: reduced
[1]
  growth of human breast cancer xenografts: inhibit growing of human breast cancer xenografts
  toxicity in xenograft-bearing nude mice: without toxicity
OSC
  OSC inhibition in words: potent inhibitor of OSC
